Tests used:
[1] = system: biotin-labeled double-stranded oligo DNA (target DNA, rat TGF-β1 promoter); experiment: Biacore assay of binding affinity for target DNA; settings: surface plasmon resonance
Source text: Biacore assay can measure binding affinity of rTGF-β (GBP1201) PIP for a target DNA in real time.
Biotin-labeled oligo DNA were annealed to form a double strand, and the double strand was immobilized on a sensor chip SA (Biacore, Uppsala, Sweden) on which streptavidin was immobilized beforehand.
Dynamics of interactions of rTGF-β (GBP1201) PIP, mismatch (FIG. 41 [a]) and biotin-labeled oligo DNA were investigated using Biacore 2000 System (Biacore, Uppsala, Sweden). Data was processed according to the protocol recommended by Biacore2000.

[2] = system: TGF-β1 protein; experiment: Immunohistochemistry test of rat eyes after corneal injury; type: in vivo; settings: day 1 after alkali injury
Procedure: At 1 hour and on 1, 4, and 7 days after induction of a corneal injury in rats, the eyeball was isolated and embedded in the OCT compound (Miles, Elkhart, Ind., USA.). The frozen section was sliced into sections having a thickness of 5 μm, and histological and immunohistological analyses were performed. Using rabbit-anti-human Tgf-β1 polyclonal antibody (Yanaihira, Japan, catalog No. Y241) as a primary antibody, the sample was diluted 1000-fold before use. 4 nontrauma corneas as normal controls were used to compare rTGF-β (GBP1201) PIP-treated eyes and mock-treated eyes. To determine the specificity of the primary antibody, a negative control was also included.

[3] = system: double-stranded oligo DNA containing the AP-1 binding site that corresponds to the TGF-β1 promoter; experiment: Gel shift assay of PIP binding to target DNA; design: species or system rat
Procedure: For the gel shift assay, a fluorescence-labeled match oligo DNA containing the AP-1 binding site that corresponds to the TGF-β1 promoter was synthesized. Sense and antisense oligo DNA suitable for the test were annealed to prepare a double-stranded oligo DNA. 1 μM DNA was incubated with 50 μM PIP compound at 37° C. for 1 hour, separated by electrophoresis using 20% polyacrylamide gel, and visualized using a fluorescence image analyzer LAS-3000 (Fuji Film, Tokyo, Japan).

[4] = system: rTGF-β1 promoter; experiment: Luciferase reporter plasmid assay of rTGF-β1 promoter expression induced by PMA; type: cell-based, rat; settings: luciferase reporter plasmid with rTGF-β1 promoter region
Source text: The reporter gene expression induced by adding PMA was inhibited by adding GBP1201 and GBP1203 but not by the mismatch polyamide.

[5] = system: alkali burn rat model (cornea); experiment: Corneal opacity, ulceration and corneal defect in rats with alkali burn; type: in vivo; settings: 1 μmol/L, 5 μl instilled once daily for 1 week, versus 0.1% aqueous acetic acid control
Procedure: 8-week-old male Wister rats were prepared and anesthetized with diethyl ether. Then, 5 μl of 0.5 N sodium hydroxide solution was administered […] to adult Wister rats by instilling the central part of the cornea of both eyes or one eye by a common method according to Saika et al. (Am J. Patho., 2005). At 10 seconds after instillation, the alkali liquid was washed off from the cornea surface with 10 ml of phosphate buffer to prepare an alkali burn rat model.
At 1 hour after a trauma due an alkali burn was induced (9.00 am), and 1 μmol/L rTGF-β (GBP1201) PIP compound and 1 μmol/L of a mixture of rMMP9AP1 and rMMP9NFkB in 1:1 (hereinafter, also referred to as rMMP9PIP) dissolved in 5 μl of 0.1% acetic acid hydrate were administered to the rat right eye by dropping in the central part of the cornea at 9.00 am once daily every day for 1 week. As a control, 0.1% aqueous acetic acid solution was administered to the left eye in the same manner as described above. The same experiment was performed in 6 rats. The reason why 0.1% aqueous acetic acid solution was used was that the PIP compound of the present invention was dissolved in this aqueous solution. Furthermore, to prevent the occurrence of an infection, antibiotic eye ointment Tarivid Ophthalmic Ointment 0.3% (Santen Pharmaceutical Co., Ltd.) was administered at 5.00 pm every day. Furthermore, the drug was administered to 2 rats in which an alkali burn was not induced as controls. Rats were observed every day at the time of instillation and application of an eye ointment, and the cornea was observed and photographed every evening. […] By utilizing this property, the corneal injury was evaluated according to the cornea fluorescein test using a FLUORES test paper (Showa Yakuhin Kako Co., Ltd.) that can test the corneal condition.
The cornea was observed until complete reepithelialization was observed. When the fluorescence staining of the cornea was not observed, complete reepithelialization was defined.
Transparency of the cornea was evaluated as follows. […]

[6] = system: nucleus of cells in the cornea; experiment: Distribution of FITC-labeled polyamide in the cornea of alkali injury model rats; type: in vivo, rat; settings: 1 hour after administration, 1 μmol/L, 5 μl instilled
Procedure: The synthesized FITC polyamide was dissolved in 0.1% acetic acid solution, the concentration was adjusted to 1 μmol/L, 5 μl of the solution was dropped on the central part of the cornea of 8 alkali injury model rats at 1 hour after induction of a trauma. Two animals each were euthanized at 1 hour and on 1, 4, and 7 days after instillation of the FITC polyamide. The eyeball was isolated, embedded in the OCT compound (Miles, Elkhart, Ind., USA) in a plastic container for a frozen section sample, frozen with liquid nitrogen, and stored in an ultra-low temperature refrigerator at −80° C. The sample was thinly sliced into a section of 5 μm and observed under a fluorescence microscope (Olympus Corporation).

binding affinity for target DNA relative to the mismatch polyamide [1] [times]	Kd ([1]; target DNA, 0-300 nM) [nM]	binding to the target DNA (gel shift) ([3]; 1 μM DNA, 50 μM PIP compound, 37° C., 1 hour)	binding to the mismatch polyamide (gel shift (so in the source)) ([3]; gel shift assay)	reporter gene expression induced by adding PMA [4]	Structure (SMILES)	TGF-β1 immunohistology versus controls [2]	healing of corneal opacity and ulceration [5]	healing of corneal defect (severity of corneal defect) ([5]; listed as TGF-β (GBP1201) PIP)	healing of corneal defect (severity of corneal defect) ([5]; listed as rTGF-β (GBP1201) PIP compound)	FITC fluorescence in the cornea [6]
149	5.12	bound specifically to the target DNA	did not bind to the mismatch polyamide	inhibited	CC(=O)Nc1cc(C(=O)Nc2cc(C(=O)NCCC(=O)Nc3cn(C)c(C(=O)Nc4cc(C(=O)Nc5cc(C(=O)NCCCC(=O)Nc6cn(C)c(C(=O)Nc7cc(C(=O)Nc8cc(C(=O)NCCC(=O)Nc9cn(C)c(C(=O)Nc%10cn(C)c(C(=O)NCCC(=O)NCCCN(C)C)n%10)n9)n(C)c8)n(C)c7)n6)n(C)c5)n(C)c4)n3)n(C)c2)n(C)c1 [rTGF-β (GBP1201)]	No immunohistological difference	significantly better than the control	significantly earlier (approximately twice as fast) than the control	significantly better than the control	–
–	–	–	–	–	CN(C)CCCNC(=O)CCNC(=O)c1nc(NC(=O)c2nc(NC(=O)CCNC(=O)c3cc(NC(=O)c4cc(NC(=O)c5nc(NC(=O)CCCNC(=O)c6cc(NC(=O)c7cc(NC(=O)c8nc(NC(=O)CCNC(=O)c9cc(NC(=O)c%10cc(NC(=O)CCNC(=S)Nc%11ccc%12c(c%11)C(=O)OC%12%11c%12ccc(O)cc%12Oc%12cc(O)ccc%12%11)cn%10C)cn9C)cn8C)cn7C)cn6C)cn5C)cn4C)cn3C)cn2C)cn1C [rTGF-β (GBP1201) FITC]	–	–	–	–	green FITC fluorescence is observed in the corneal epithelium and in the nucleus of interstitial cells in the cornea
